Assay results: patent publication US5463078A, “Anisomycin derivatives and anticancer agents, antifungal agents and antiprotozoan agents containing the same” (Ajinomoto Co., Inc., priority 1993, dated 1995)
In brackets after ≈: the same amount, converted by molar mass. Like-named read-outs stand apart in the source and are kept apart here.

Assays:
[1] = Measurement of stability of anisomycin derivatives in rat plasma; type: in vitro ADME
Method: Experiment 1: Measurement of stability of anisomycin derivatives in rat plasma
To investigate the stability of the present compounds in rat plasma, the half-life thereof was measured. For the measurement, an approximately 0.25 mg portion of each test compound was dissolved in 150 μl of rat plasma, and the solution was incubated at 37° C. Aliquots were taken over specific periods of time, and the amount of residual anisomycin derivative was measured by HPLC to determine the half-life thereof.

[2] = system: Saccharomyces cereviceae; assay: Antifungal activity: growth inhibition of Saccharomyces cereviceae; type: cell-based; conditions: potato dextrose agar, 25° C., 7 days
Method: (§1) Experiment 3: Measurement of antifungal activity of anisomycin derivatives
(§2) The growth-inhibiting activity of the present compounds against various fungi was investigated. Into each well of a 6-well microplate, 0.3 ml of a solution of each test compound and 2.7 ml of a sterile solution of potato dextrose agar culture medium (kept at a temperature of about 50° C.) were added. After solidification, 5 μl from each suspension of test cells (yeast: approx. 10^3 cells/ml; mold: approx. 10^4 spores/ml) was inoculated onto the above-mentioned agar medium, and the cultures were maintained at 25° C. for 7 days. The growth of the test cells was observed, and the minimum concentration (MIC value) was determined at which complete inhibition of growth occurred. The test compounds were used after adjustment to 1 mg/ml with dimethylsulfoxide and dilution with distilled water.

[3] = system: Mucor rouxii; assay: Antifungal activity: growth inhibition of Mucor rouxii; type: cell-based; conditions: potato dextrose agar, 25° C., 7 days
Method: as §1, §2

[4] = system: Candida albicans; assay: Antifungal activity: growth inhibition of Candida albicans; type: cell-based; conditions: potato dextrose agar, 25° C., 7 days
Method: as §1, §2

[5] = system: P388 leukemia tumor cells; assay: Antitumor effect of anisomycin derivatives in vivo (P388 leukemia, CDF1 mice); parameters: species or system mouse; conditions: P388 i.p. in CDF1 mice; 10 mg/kg i.p. once a day for 10 days
Method: Experiment 4: Antitumor effect of anisomycin derivatives in vivo
Into one group of 5 CDF1 mice, 1×10^6 P388 leukemia tumor cells were intraperitoneally transplanted. Beginning the next day, a 10 mg/kg portion of the test compound dissolved in 0.2 ml of a solution containing an equal volume of dimethylsulfoxide and saline was administered to the mice intraperitoneally once a day for 10 days. The increase in the life span of the mice in days (ILS) was determined according to the following equation: [formula]

[6] = system: Cryptococcus neoformans; assay: Antifungal activity: growth inhibition of Cryptococcus neoformans; type: cell-based; conditions: potato dextrose agar, 25° C., 7 days
Method: as §1, §2

[7] = Stability in the blood; conditions: in words
[8] = system: Aspergillus fumigatus; assay: Antifungal activity: growth inhibition of Aspergillus fumigatus; type: cell-based; conditions: potato dextrose agar, 25° C., 7 days
Method: as §1, §2

[9] = system: FM3A cells; assay: Inhibitory activity on proliferation of FM3A culture; type: cell-based, mouse; conditions: for IC50: Mus musculus, read-out: IC50 (50% proliferation inhibition concentration)
Method: Experiment 2: Measurement of inhibitory activity of anisomycin derivatives on proliferation of FM3A culture
The proliferation-inhibiting activity of the present compounds against a culture of FM3A cells derived from mouse mammary tumor was investigated. Into each well of a 96-well microplate was added 50 μl of 10^5 cells/ml of FM3A cells, which had been suspended in a Dulbecco-modified Eagle culture medium containing 10% fetal calf serum. The IC50 (50% proliferation inhibition concentration) was calculated based on the number of surviving cells for a prescribed concentration of the test compounds.

[10] = system: protein synthesis; conditions: in words; J. Biol. Chem., vol. 242, p. 3226, 1967; cited from earlier work
[11] = 168 h, read-out: MIC (minimum concentration at which complete inhibition of growth occurred)

With `COc1ccc(CC2NCC(O)C2OC(=O)NCCCc2ccccc2)cc1` (stereo not shown) [Example 5, 3-O-(3-phenylpropyl)carbamoyldeacetylanisomycin] as the molecule, how does the Half-life [1] read?
Its Half-life is “No decomposition”.

For `COc1ccc(CC2NCC(O)C2OC(C)=O)cc1` (single isomer, unassigned) [Anisomycin, anisomycin], which “MIC (minimum concentration at which complete inhibition of growth occurred)” value [2] is on record?
Its value is 12.5 µg/mL.

What about the “MIC (minimum concentration at which complete inhibition of growth occurred)” value [3] of the same molecule?
The value was > 100 µg/mL.

And the “MIC (minimum concentration at which complete inhibition of growth occurred)” value [4]?
The value was 100 µg/mL.

And the “ILS (increase in the life span of the mice)” value [5]?
The value was 0%.

And the “MIC (minimum concentration at which complete inhibition of growth occurred)” value [6]?
Its value is 25 µg/mL.

What about the “stability in the blood” value [7] of the same molecule?
The value was “extremely unstable in the blood and is rapidly hydrolyzed”.

And the “MIC (minimum concentration at which complete inhibition of growth occurred)” value [8]?
The value was > 100 µg/mL.

What about the “IC50 (50% proliferation inhibition concentration)” value [9] of the same molecule?
The value was 0.02 µg/mL (≈ 0.0754 µM).

And the cytotoxic activity [10]?
Its cytotoxic activity is “strong cytotoxic activity due to its inhibitory effect on protein synthesis”.

What about the Half-life ([1]; rat plasma, 37° C., residual amount by HPLC, read-out: Half-life) of the same molecule?
The Half-life was 0.05 h.

Which IC50 [9] does the source give for `CCCCCCC(=O)OC1CNC(Cc2ccc(OC)cc2)C1OC(N)=O` (stereo not shown) [Example 17, 4-O-heptanoyl-3-O-carbamoyldeacetylanisomycin] here?
Its IC50 is 0.03 µg/mL (≈ 0.0793 µM).

For `COCOC1C(O)CNC1Cc1ccc(OC)cc1` (stereo not shown) [Example 22, 3-O-methoxymethyldeacetylanisomycin], which IC50 [9] is on record?
Its IC50 is 0.062 µg/mL (≈ 0.232 µM).

And the Half-life [1]?
Its Half-life is “No decomposition”.

What does the source list for `COc1ccc(CC2NCC(OC(C)=O)C2OC(N)=O)cc1` (stereo not shown) [Example 15, 4-O-acetyl-3-O-carbamoylanisomycin]?
IC50 [9]: 0.039 µg/mL (≈ 0.126 µM); Half-life ([1]; rat, plasma): 6.67 h

Which IC50 [9] does the source give for `CCCCCC(=O)OC1CNC(Cc2ccc(OC)cc2)C1OC(N)=O` (stereo not shown) [Example 16, 4-O-hexanoyl-3-O-carbamoyldeacetylanisomycin] here?
Its IC50 is 0.039 µg/mL (≈ 0.107 µM).

Which Half-life [1] does the source give for `COc1ccc(CC2NCC(O)C2OC(=O)Nc2ccccc2)cc1` (stereo not shown) [Example 11, 3-O-phenylcarbamoyldeacetylanisomycin] here?
Its Half-life is “No decomposition”.

Which MIC [2, 11] does the source give for `CCCCCCCCCCCC(=O)OC1CNC(Cc2ccc(OC)cc2)C1OC(N)=O` (stereo not shown) [Example 18, 4-O-dodecanoyl-3-O-carbamoyldeacetylanisomycin] here?
The MIC was 25 µg/mL (≈ 55.7 µM).

And the MIC ([3]; Amylomyces rouxii, 168 h, read-out: MIC (minimum concentration at which complete inhibition of growth occurred))?
The MIC was 50 µg/mL (≈ 111 µM).

And the MIC [4, 11]?
Its MIC is 50 µg/mL (≈ 111 µM).

And the “ILS (increase in the life span of the mice)” value [5]?
The value was 44%.

What about the MIC [6, 11] of the same molecule?
The MIC was 3.1 µg/mL (≈ 6.91 µM).

What about the MIC [8, 11] of the same molecule?
Its MIC is 50 µg/mL (≈ 111 µM).

And the IC50 [9]?
Its IC50 is < 0.02 µg/mL.

For `CNC(=O)OC1C(O)CNC1Cc1ccc(OC)cc1` (stereo not shown) [Example 1, 3-O-methylcarbamoyl-deacetylanisomycin], which IC50 [9] is on record?
The IC50 was 0.06 µg/mL (≈ 0.214 µM).

What about the Half-life [1] of the same molecule?
Its Half-life is “No decomposition”.

For `COc1ccc(CC2NCC(O)C2OC(N)=O)cc1` (stereo not shown) [Example 2, 3-O-carbamoyldeacetylanisomycin], which Half-life [1] is on record?
The Half-life was “No decomposition”.
